Reference: patent publication US20240336617A1, “Substituted Bimane Compounds and Methods of Use Thereof” (THE TRUSTEES OF THE UNIVERSITY OF PENNSYLVANIA, priority 2023, published 2024)
Blank lines part the entries; values can stand above or below the compound they belong to.

Assays:
αS fibrils [1] = target: T1, αS fibrils (Homo sapiens, UniProt P37840); experiment: Competition binding with ThT on αS fibrils
T1 construct: intein-His6 (C, cleaved yes); made in house; host or cells: Escherichia coli BL21

[2] = pH measurements (absorption and emission); format: physicochemical; settings: pH 2-11
Description: 10 mM stock solutions of 7h, 7j, and 7k in DMSO were individually diluted into ACN/PBS buffer (50:50 v/v) having different pH ranging from pH 2-11 with 25 μM (500 μL) of final concentration. For pH screening of 7h and 7j, PBS buffer solutions were prepared, then adjusted the pH 2, 4, and 7 by adding 6 M hydrochloric acid, pH 9 and 11 by adding 5 M sodium hydroxide. For pH screening of 7k, pH 4.4 and 7.4 were prepared by citric acid/phosphate buffer. Then, the absorption and fluorescence spectra were recorded by using Thermo Scientific Genesys 150 UV-Vis spectrometer, followed by PTI QuantaMaster™ 40 fluorescence spectrometer by excitation with maximum absorption wavelength.
pH measurements. 10 mM stock solutions of 5h and 5j in DMSO were individually diluted into ACN/PBS buffer (50:50 v/v) having different pH ranging from pH 2-11 with 25 µM (500 μL) of final concentration. For pH screening of 5h and 5j, PBS buffer solutions were prepared, then adjusted the pH 2, 4, and 7 by adding 6 M hydrochloric acid, pH 9 and 11 by adding 5 M sodium hydroxide. Then, we have recorded the absorption and fluorescence spectra by using Thermo Scientific Genesys 150 UV-Vis spectrometer, followed by PTI QuantaMaster™ 40 fluorescence spectrometer by excitation with maximum absorption wavelength.

tau fibrils = target: T2, tau fibrils (Homo sapiens, UniProt P10636); experiment: Fluorescence and excitation spectra with tau fibrils; format: binding
T2 construct: made in house; host or cells: E. coli BL21
Description: (§1) Fluorescence measurements were performed using a PTI QuantaMaster™ 40 fluorescence spectrometer. Fluorescence spectra of 5 μM probes (concentrated stock solution prepared as 10 mM in DMSO) (7j, 7k, 7l, 7m, and ThT) in PBS buffer were measured in the absence and presence of 25 μM tau fibrils (stock solution 32 μM tau fibrils in PBS buffer).
as §1, with “Excitation spectral measurements” for “Fluorescence measurements”, “spectrometer. Excitation” for “spectrometer. Fluorescence”
as §1, with “QuantaMaster” for “QuantaMaster™”, “(5j, 5k,” for “(7j, 7k, 7l, 7m,”
Excitation spectral measurements were performed using a PTI QuantaMaster™ 40 fluorescence spectrometer. Excitation spectra of 5 μM probes (concentrated stock solution prepared as 10 mM in DMSO) (5j, 5k, and ThT) in PBS buffer were measured in the absence and presence of 25 μM tau fibrils (stock solution 32 μM tau fibrils in PBS buffer). […]

[3] = target: bovine serum albumin (BSA) (Bos taurus, UniProt P02769); experiment: Fluorescence in the presence of BSA; format: binding
αS fibrils [4] = target: T1, αS fibrils; experiment: Fractionation (total, supernatant, pellet) of αS fibrils with probe; format: binding; settings: T, S, P fractions

bovine serum albumin (BSA), sequence (P02769 25-607): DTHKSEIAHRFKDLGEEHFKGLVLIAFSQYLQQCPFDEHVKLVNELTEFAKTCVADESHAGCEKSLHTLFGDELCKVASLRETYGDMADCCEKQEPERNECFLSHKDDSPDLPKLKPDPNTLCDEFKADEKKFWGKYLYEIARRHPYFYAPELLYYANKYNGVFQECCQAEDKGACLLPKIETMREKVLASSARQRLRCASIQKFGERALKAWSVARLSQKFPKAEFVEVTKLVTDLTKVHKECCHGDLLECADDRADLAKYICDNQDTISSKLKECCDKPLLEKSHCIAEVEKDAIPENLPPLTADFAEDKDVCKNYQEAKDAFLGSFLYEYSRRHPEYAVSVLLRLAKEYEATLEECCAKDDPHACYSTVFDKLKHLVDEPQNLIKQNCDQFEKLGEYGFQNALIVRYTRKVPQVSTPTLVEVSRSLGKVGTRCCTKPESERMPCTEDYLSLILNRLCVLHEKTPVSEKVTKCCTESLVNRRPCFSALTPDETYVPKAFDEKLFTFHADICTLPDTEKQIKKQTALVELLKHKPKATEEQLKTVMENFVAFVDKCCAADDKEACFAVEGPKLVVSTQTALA
T2 sequence (P10636 1-412 isoform P10636-7): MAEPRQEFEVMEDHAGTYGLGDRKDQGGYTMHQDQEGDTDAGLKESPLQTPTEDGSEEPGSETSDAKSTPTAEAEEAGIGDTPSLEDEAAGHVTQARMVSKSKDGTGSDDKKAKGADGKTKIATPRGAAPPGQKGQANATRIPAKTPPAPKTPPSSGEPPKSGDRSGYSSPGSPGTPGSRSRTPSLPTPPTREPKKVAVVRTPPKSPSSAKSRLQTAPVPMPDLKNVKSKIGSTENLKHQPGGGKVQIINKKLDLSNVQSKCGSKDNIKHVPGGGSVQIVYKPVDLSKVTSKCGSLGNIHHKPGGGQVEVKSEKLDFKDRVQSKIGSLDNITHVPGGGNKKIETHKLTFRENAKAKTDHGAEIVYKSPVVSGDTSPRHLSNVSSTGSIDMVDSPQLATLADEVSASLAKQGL

- competition with ThT on αS PFFs (αS fibrils [1]): higher affinity compared than ThT
SMILES: Cc1c(C)n2c(/C=C/c3ccc(N4CCOCC4)cc3)c(C)c(=O)n2c1=O [Compound 7k, (E)-2,3,6-trimethyl-5-(4-morpholinostyryl)-1H,7H-pyrazolo[1,2-a]pyrazole-1,7-dione]

SMILES: Cc1c(C)n2c(/C=C/c3ccc(N)cc3)c(C)c(=O)n2c1=O [Compound 7j, (E)-3-(4-aminostyryl)-2,5,6-trimethyl-1H,7H-pyrazolo[1,2-a]pyrazole-1,7-dione]
- pH effects on absorption and emission [2]: blue-shifted absorption and emission at pH 2

- emission maximum bound to tau (tau fibrils): 596 nm
- fluorescence turn on with BSA [3]: turn-on was possible
- λmax (λem) with BSA ([3]; 10 μM probe, BSA 50 μM, excitation 418 nm): 555 nm
- fractionation of αS fibrils with probe (αS fibrils [4]): selectively binds to the fibrils
SMILES: Cc1c(C)n2c(/C=C/c3ccc(N(C)C)cc3)c(C)c(=O)n2c1=O [Compound 7l, (E)-3-(4-(dimethylamino)styryl)-2,5,6-trimethyl-1H,7H-pyrazolo[1,2-a]pyrazole-1,7-dione]

SMILES: Cc1c(C)n2c(/C=C/C=C/c3ccc(N(C)C)cc3)c(C)c(=O)n2c1=O [Compound 7m, 3-((1E,3E)-4-(4-(dimethylamino)phenyl)buta-1,3-dien-1-yl)-2,5,6-trimethyl-1H,7H-pyrazolo[1,2-a]pyrazole-1,7-dione]
- fractionation of αS fibrils with probe (αS fibrils [4]): retained its fluorescence in the pellet fraction more than 2a
